In US20260115250A1, “METHODS OF TREATING AGE-RELATED MACULAR DEGENERATION” (Character Biosciences, Inc., priority 2022, published 2026):
Ends that are not written are not given here. Peptide text beside a SMILES is read from it.

Experiments:
LDLR [1] = target: T1, LDLR (Homo sapiens, UniProt P01130); test: LDLR binding (SPR), high surfactant preparation; conditions: high surfactant preparation (HBS-P+), 1:1 binding model; read-out: binding KD to LDLR
Outline: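 Surface plasmon resonance with recombinant LDLR amine-coupled to a CM5 chip at 1000 RU. Peptides, 5 μM top concentration then 1:3 dilutions (5 levels) in HBS-P+ with 1 mM CaCl2, injected 120 seconds at 30 μL/sec; multi-cycle kinetics fitted to a 1:1 binding model.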
Target sequence in this assay (P01130 22-860): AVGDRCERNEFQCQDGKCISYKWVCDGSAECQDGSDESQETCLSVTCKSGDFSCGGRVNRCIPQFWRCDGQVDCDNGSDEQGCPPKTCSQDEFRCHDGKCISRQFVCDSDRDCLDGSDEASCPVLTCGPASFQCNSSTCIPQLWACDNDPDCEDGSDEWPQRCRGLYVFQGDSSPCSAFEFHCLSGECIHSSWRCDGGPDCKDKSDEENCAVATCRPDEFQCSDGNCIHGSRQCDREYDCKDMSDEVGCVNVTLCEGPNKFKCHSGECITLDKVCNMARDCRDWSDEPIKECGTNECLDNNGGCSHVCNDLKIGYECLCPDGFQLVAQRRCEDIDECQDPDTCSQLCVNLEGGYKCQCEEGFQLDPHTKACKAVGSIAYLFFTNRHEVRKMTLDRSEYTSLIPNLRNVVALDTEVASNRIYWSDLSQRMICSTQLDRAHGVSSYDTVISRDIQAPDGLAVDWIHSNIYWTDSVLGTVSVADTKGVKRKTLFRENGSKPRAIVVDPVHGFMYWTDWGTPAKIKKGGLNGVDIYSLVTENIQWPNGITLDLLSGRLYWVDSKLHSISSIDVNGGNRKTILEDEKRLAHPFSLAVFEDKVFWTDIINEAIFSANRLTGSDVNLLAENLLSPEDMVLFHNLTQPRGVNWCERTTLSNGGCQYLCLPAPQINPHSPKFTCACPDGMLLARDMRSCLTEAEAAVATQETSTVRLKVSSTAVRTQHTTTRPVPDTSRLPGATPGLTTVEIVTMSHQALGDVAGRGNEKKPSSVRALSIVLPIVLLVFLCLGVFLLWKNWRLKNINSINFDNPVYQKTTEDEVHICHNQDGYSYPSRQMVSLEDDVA

LDLR [2] = target: T1, LDLR; test: KD, Peptide (μM)
Target sequence in this assay (P01130 22-860 limits assumed): as the sequence (P01130 22-860) above
Source text: Title: Buffer: HBS + 0.005% P20
Head of the field: KD, Peptide (μM)
First copying reader's note: KD values are for binding to LDLR by SPR, peptide alone versus peptide:DMPC lipid complex; the table continues on FIG. 24B.

LDLR [3] = target: T1, LDLR; test: KD (µM)
Source text: First copying reader's note: Left of three side-by-side panels of FIG. 23; the KD cells hold value ± error together. Where the first naming reader finds the target: description_of_the_figure: FIG. 23 is a table showing the binding kinetics results of LDLR binding assays (SPR)
Target sequence in this assay (P01130 22-860 limits assumed): as the sequence (P01130 22-860) above

ARPE-19 cells = test: ARPE-19 cell lysis (Sytox Green); type: cell-based, human; conditions: 10 μM peptide, 2 h
Protocol: These figures illustrate ARPE-19 cell lysis. ARPE-19 cells were grown in 96-well plates to 75-85% confluence. Peptides at 10 mM were diluted in serum-free DMEM:F12 media into a 20 μM working solution (a 2× solution). Sytox Green was prepared in serum-free DMEM:F12 at a 1 μM working solution (a 2× solution). Equivalent volumes of the peptide and Sytox Green solutions were added to empty 96-well plates and mixed gently. Final peptide concentration was 10 μM. ARPE-19 cells (˜80% confluent in 96-well plates) were washed with DPBS and then incubated in 100 μL of peptide/Sytox Green mixture for 2 h at 37° C. Cells were fixed in 4% paraformaldehyde solution in DPBS and then incubated in 10 μM Hoechst solution for 10 min, washed, and imaged on a Yokogawa CQ1 high-content imager. CellPathfinder software was used to count live/dead cells in 4 fields of view at 20× magnification. Percent (%) lysis was calculated by dividing the number of Sytox Green+ nuclei by the total number of Hoechst+ nuclei.
ARPE-19 cells were grown in 96-well plates to 75-85% confluence. Peptides at 10 mM were diluted in serum-free DMEM: F12 media to solutions between […]. Sytox Green was prepared in serum-free DMEM: F12 media at a 1 μM working solution. Equivalent volumes of the peptide and Sytox Green solutions were added to empty 96-well plates and mixed gently. Final peptide concentration was 3.16-100 μM. ARPE-19 cells (˜80% confluent in 96-well plates) were washed with DPBS and then incubated in 100 μL of peptide/Sytox Green mixture for 2 h at 37° C. Cells were fixed in 4% paraformaldehyde solution in DPBS and then incubated in 10 μM Hoechst solution for 10 min, washed, and imaged on a Yokogawa CQ1 high-content imager. CellPathfinder software was used to count live/dead cells in 4 fields of view at 20× magnification. Percent (%) lysis was calculated by dividing the number of Sytox Green+ nuclei by the total number of Hoechst+ nuclei. Non-linear regression was used to calculate EC50 values.

Row | Molecule | Kd (LDLR [1]) [µM] | Kd (LDLR [2]) [µM] | Kd (LDLR [3]) [µM] | ARPE-19 cell lysis (ARPE-19 cells)
1 | CC(C)C[C@H](NC(=O)[C@H](CCCNC(=N)N)NC(=O)[C@H](CC(=O)O)NC(=O)[C@H](CCC(N)=O)NC(=O)[C@H](CC(C)C)NC(=O)[C@H](CCCCN)NC(=O)[C@H](CC(=O)O)NC(=O)CNC(=O)[C@H](CC(=O)O)NC(=O)[C@H](CCCNC(=N)N)NC(=O)[C@H](CC(C)C)NC(=O)[C@H](CC(C)C)NC(=O)[C@H](CCCNC(=N)N)NC(=O)[C@H](CCCCN)NC(=O)[C@H](CCCNC(=N)N)NC(=O)[C@H](CC(C)C)NC(=O)[C@H](CCCCN)NC(=O)[C@H](CCCNC(=N)N)NC(=O)[C@H](CC(C)C)NC(=O)[C@H](Cc1c[nH]cn1)NC(=O)[C@H](CO)NC(=O)[C@H](C)NC(=O)[C@@H](N)CC(C)C)C(=O)N[C@@H](C)C(=O)N[C@@H](CCC(=O)O)C(=O)N[C@@H](Cc1ccc(O)cc1)C(=O)N[C@@H](CCC(N)=O)C(=O)N[C@@H](C)C(=O)N[C@@H](CCCNC(=N)N)C(=O)N[C@@H](C)C(=O)N[C@@H](CCCCN)C(=O)N[C@@H](CCC(=O)O)C(=O)N[C@@H](C)C(=O)N[C@@H](Cc1ccccc1)C(=O)N[C@@H](CC(=O)O)C(=O)N[C@@H](CCCNC(=N)N)C(=O)O [T-048] | < 10 | 11.4 ± 5.29 |  | 
2 | CC(C)C[C@H](NC(=O)[C@H](CCCNC(=N)N)NC(=O)[C@H](CCCCN)NC(=O)[C@H](CCC(N)=O)NC(=O)[C@H](CC(C)C)NC(=O)[C@H](CC(=O)O)NC(=O)[C@H](CC(=O)O)NC(=O)[C@H](C)NC(=O)[C@H](CC(=O)O)NC(=O)[C@H](CCCNC(=N)N)NC(=O)[C@H](C)NC(=O)[C@H](CC(C)C)NC(=O)[C@H](CCCNC(=N)N)NC(=O)[C@H](CCCCN)NC(=O)[C@H](CCCNC(=N)N)NC(=O)[C@H](CC(C)C)NC(=O)[C@H](CCCCN)NC(=O)[C@H](CCCNC(=N)N)NC(=O)[C@H](CC(C)C)NC(=O)[C@H](Cc1c[nH]cn1)NC(=O)[C@H](CCCNC(=N)N)NC(=O)[C@H](C)NC(=O)[C@@H](N)CC(C)C)C(=O)N[C@@H](C)C(=O)N[C@H](C(=O)N[C@@H](Cc1ccc(O)cc1)C(=O)N[C@@H](CCC(N)=O)C(=O)N[C@@H](C)C(=O)NCC(=O)N[C@@H](C)C(=O)N[C@@H](CCCNC(=N)N)C(=O)N[C@@H](CCC(=O)O)C(=O)NCC(=O)N[C@@H](C)C(=O)N[C@@H](CCC(=O)O)C(=O)N[C@@H](CCCNC(=N)N)C(=O)O)C(C)C [T-047] (H-LARHLRKLRKRLARDADDLQKRLAVYQAGAREGAER-OH) | < 10 |  | 3.26 ± 0.23 | 
3 | CC(C)C[C@H](NC(=O)[C@H](CC(C)C)NC(=O)[C@H](CCCNC(=N)N)NC(=O)[C@H](CCCCN)NC(=O)[C@H](CCCNC(=N)N)NC(=O)[C@H](CC(C)C)NC(=O)[C@H](CCCCN)NC(=O)[C@H](CCCNC(=N)N)NC(=O)[C@H](CC(C)C)NC(=O)[C@@H](N)Cc1c[nH]cn1)C(=O)N[C@@H](CCCNC(=N)N)C(=O)N[C@@H](CC(=O)O)C(=O)N[C@@H](Cc1c[nH]c2ccccc12)C(=O)N[C@@H](Cc1ccccc1)C(=O)N[C@@H](CCCCN)C(=O)N[C@@H](C)C(=O)N[C@@H](Cc1ccccc1)C(=O)N[C@@H](Cc1ccc(O)cc1)C(=O)N[C@@H](CC(=O)O)C(=O)N[C@@H](CCCCN)C(=O)N[C@H](C(=O)N[C@@H](C)C(=O)N[C@@H](CCC(=O)O)C(=O)N[C@@H](CCCCN)C(=O)N[C@@H](Cc1ccccc1)C(=O)N[C@@H](CCCCN)C(=O)N[C@@H](CCC(=O)O)C(=O)N[C@@H](C)C(=O)N[C@@H](Cc1ccccc1)C(=O)O)C(C)C [T-021] (H-HLRKLRKRLLRDWFKAFYDKVAEKFKEAF-OH) |  |  |  | induce cell lysis
4 | CC(C)C[C@H](NC(=O)[C@H](CCCNC(=N)N)NC(=O)[C@H](CCCCN)NC(=O)[C@H](CCC(N)=O)NC(=O)[C@H](CC(C)C)NC(=O)[C@H](CC(=O)O)NC(=O)[C@H](CC(=O)O)NC(=O)[C@H](C)NC(=O)[C@H](CC(=O)O)NC(=O)[C@H](CCCNC(=N)N)NC(=O)[C@H](CC(C)C)NC(=O)[C@H](CC(C)C)NC(=O)[C@H](CCCNC(=N)N)NC(=O)[C@H](CCCCN)NC(=O)[C@H](CCCNC(=N)N)NC(=O)[C@H](CC(C)C)NC(=O)[C@H](CCCCN)NC(=O)[C@H](CCCNC(=N)N)NC(=O)[C@H](CC(C)C)NC(=O)[C@@H](N)Cc1c[nH]cn1)C(=O)N[C@@H](C)C(=O)N[C@H](C(=O)N[C@@H](Cc1ccc(O)cc1)C(=O)N[C@@H](CCC(N)=O)C(=O)N[C@@H](C)C(=O)O)C(C)C [T-045] (H-HLRKLRKRLLRDADDLQKRLAVYQA-OH; N-terminus and C-terminus assumed) |  | 11800 ± 1250 | 71.2 ± 31.8 | 
5 | CC(C)C[C@H](NC(=O)[C@H](CCCNC(=N)N)NC(=O)[C@H](CCCCN)NC(=O)[C@H](CCC(N)=O)NC(=O)[C@H](CC(C)C)NC(=O)[C@H](CC(=O)O)NC(=O)[C@H](CC(=O)O)NC(=O)[C@H](C)NC(=O)[C@H](CC(=O)O)NC(=O)[C@H](CCCNC(=N)N)NC(=O)[C@H](CC(C)C)NC(=O)[C@H](CC(C)C)NC(=O)[C@H](CCCNC(=N)N)NC(=O)[C@H](CCCCN)NC(=O)[C@H](CCCNC(=N)N)NC(=O)[C@H](CC(C)C)NC(=O)[C@H](CCCCN)NC(=O)[C@H](CCCNC(=N)N)NC(=O)[C@H](CC(C)C)NC(=O)[C@@H](N)Cc1c[nH]cn1)C(=O)N[C@@H](C)C(=O)N[C@H](C(=O)N[C@@H](Cc1ccc(O)cc1)C(=O)N[C@@H](CCC(N)=O)C(=O)N[C@@H](C)C(=O)NCC(=O)N[C@@H](C)C(=O)N[C@@H](CCCNC(=N)N)C(=O)N[C@@H](CCC(=O)O)C(=O)NCC(=O)N[C@@H](C)C(=O)N[C@@H](CCC(=O)O)C(=O)N[C@@H](CCCNC(=N)N)C(=O)O)C(C)C [T-043] (H-HLRKLRKRLLRDADDLQKRLAVYQAGAREGAER-OH; N-terminus and C-terminus assumed) |  | 840 ± 1150 | 48.6 | 

More lines, main results first:

Row | Kd (LDLR [1]) [µM] | Kd (LDLR [2]) [µM] | Kd (LDLR [3]) [µM] | Molecule | ARPE-19 cell lysis (ARPE-19 cells)
6 |  | 18.5 ± 2.69 |  | LVQYRGEVQAMLGQSTEELRVRLASHLRKLRKRLLRDADDLQ [T-071] | 
7 |  | 43000 ± 34000 | 121 ± 14.9 | CC(C)C[C@H](NC(=O)[C@H](CCCNC(=N)N)NC(=O)[C@H](CC(=O)O)NC(=O)[C@H](CCC(N)=O)NC(=O)[C@H](CC(C)C)NC(=O)[C@H](CCCCN)NC(=O)[C@H](CC(=O)O)NC(=O)CNC(=O)[C@H](CC(=O)O)NC(=O)[C@H](CCCNC(=N)N)NC(=O)[C@H](CC(C)C)NC(=O)[C@H](CC(C)C)NC(=O)[C@H](CCCNC(=N)N)NC(=O)[C@H](CCCCN)NC(=O)[C@H](CCCNC(=N)N)NC(=O)[C@H](CC(C)C)NC(=O)[C@H](CCCCN)NC(=O)[C@H](CCCNC(=N)N)NC(=O)[C@H](CC(C)C)NC(=O)[C@@H](N)Cc1c[nH]cn1)C(=O)N[C@@H](C)C(=O)N[C@H](C(=O)N[C@@H](Cc1ccc(O)cc1)C(=O)N[C@@H](CCC(N)=O)C(=O)N[C@@H](C)C(=O)N[C@@H](CCCNC(=N)N)C(=O)N[C@@H](C)C(=O)N[C@@H](CCCCN)C(=O)N[C@@H](CCC(=O)O)C(=O)N[C@@H](C)C(=O)N[C@@H](Cc1ccccc1)C(=O)N[C@@H](CC(=O)O)C(=O)N[C@@H](CCCNC(=N)N)C(=O)O)C(C)C [T-053] (H-HLRKLRKRLLRDGDKLQDRLAVYQARAKEAFDR-OH; N-terminus and C-terminus assumed) | 
8 | < 10 |  | 3.26 ± 0.2 | CC(C)C[C@H](NC(=O)[C@H](CCCNC(=N)N)NC(=O)[C@H](CC(=O)O)NC(=O)[C@H](CCC(N)=O)NC(=O)[C@H](CC(C)C)NC(=O)[C@H](CCCCN)NC(=O)[C@H](CC(=O)O)NC(=O)CNC(=O)[C@H](CC(=O)O)NC(=O)[C@H](CCCNC(=N)N)NC(=O)[C@H](C)NC(=O)[C@H](CC(C)C)NC(=O)[C@H](CCCNC(=N)N)NC(=O)[C@H](CCCCN)NC(=O)[C@H](CCCNC(=N)N)NC(=O)[C@H](CC(C)C)NC(=O)[C@H](CCCCN)NC(=O)[C@H](CCCNC(=N)N)NC(=O)[C@H](CC(C)C)NC(=O)[C@H](Cc1c[nH]cn1)NC(=O)[C@H](CCCNC(=N)N)NC(=O)[C@H](C)NC(=O)[C@@H](N)CC(C)C)C(=O)N[C@@H](C)C(=O)N[C@@H](CCC(=O)O)C(=O)N[C@@H](Cc1ccc(O)cc1)C(=O)N[C@@H](CCC(N)=O)C(=O)N[C@@H](C)C(=O)N[C@@H](CCCNC(=N)N)C(=O)N[C@@H](C)C(=O)N[C@@H](CCCCN)C(=O)N[C@@H](CCC(=O)O)C(=O)N[C@@H](C)C(=O)N[C@@H](Cc1ccccc1)C(=O)N[C@@H](CC(=O)O)C(=O)N[C@@H](CCCNC(=N)N)C(=O)O [T-049] (H-LARHLRKLRKRLARDGDKLQDRLAEYQARAKEAFDR-OH) | 
